# Data from US20230141783A1, “DIFFERENT FORMS OF 6-CHLORO-2-ETHYL-N-(4-(4-(4-(TRIFLUOROMETHOXY)PHENYL)PIPERIDINE-1-YL)BENZYL)IMIDAZO[1,2-A]PYRIDINE-3-CARBOXAMIDE” (priority 2019, published 2023).
# Tests used:
# [1] = Solubility estimation by aliquot addition and Clarity temperature cycling; conditions: for solubility: 20 °C, organic solvent or mixture, thermodynamic from solid
# cytochrome bc1 = cytochrome bc1 (Mycobacterium tuberculosis, UniProt P9WP37); conditions: Pethe et al., Nature Medicine, 19, 1157-1160 (2013); inhibiting cytochrome bc1 activity; cited from earlier work
# cytochrome bc1, sequence (P9WP37 whole entry, looked up): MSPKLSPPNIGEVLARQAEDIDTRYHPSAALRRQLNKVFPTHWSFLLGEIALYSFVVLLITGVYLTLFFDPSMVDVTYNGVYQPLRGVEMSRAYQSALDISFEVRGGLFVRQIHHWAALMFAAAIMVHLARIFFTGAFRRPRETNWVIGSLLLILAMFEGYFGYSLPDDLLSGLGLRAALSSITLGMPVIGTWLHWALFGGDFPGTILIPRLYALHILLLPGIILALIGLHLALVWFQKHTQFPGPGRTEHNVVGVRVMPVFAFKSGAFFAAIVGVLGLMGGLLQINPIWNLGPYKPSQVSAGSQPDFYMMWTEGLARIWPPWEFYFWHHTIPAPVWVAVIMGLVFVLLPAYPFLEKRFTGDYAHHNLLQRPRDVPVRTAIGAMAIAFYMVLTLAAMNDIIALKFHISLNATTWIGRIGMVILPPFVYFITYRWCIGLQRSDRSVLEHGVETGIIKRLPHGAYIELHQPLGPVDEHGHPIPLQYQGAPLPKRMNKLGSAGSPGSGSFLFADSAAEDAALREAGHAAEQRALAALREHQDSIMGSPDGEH
# [2] = Approximate solubility of the free base by gravimetry method; assay type: physicochemical; conditions: organic solvent or mixture, thermodynamic from solid
# Protocol: The objective of measuring solubility of free base was to identify potential solvents for salt formation process development. Approximate solubility of the free base was measured by gravimetry method. Excess solids were added to various solvents including some Class III solvents (ICH guideline) at RT and 50° C. Since the solubility in these solvents is generally low, it was decided to mix water with these solvents. The suspensions were slurried for one day; the clear liquors from the top portion of the suspension were used for solubility determination by gravimetry method.
# [3] = pKa analysis (UV-metric titration); assay type: physicochemical; conditions: methanol-water co-solvent, aqueous values by Yasuda-Shedlovsky extrapolation, 25.0-25.1 °C, 0.15 M KCl
# Protocol: The sample pKas were determined using the spectrometric (UV-metric) technique. The sample was titrated in a UV-metric triple titration from pH 2.0-12.0 at concentrations of 31 -23 µM, under methanol-water co-solvent conditions (the methanol mixing ratio varied from 63.9 to 46.7% w/w).
# It should be noted that an additional potentiometric assay was carried out which confirmed the pKas and that there were no further pKas associated with the sample within the measurable pH range (2.0-12.0).
compound,measurement,setting,value
"CCc1nc2ccc(Cl)cn2c1C(=O)NCc1ccc(N2CCC(c3ccc(OC(F)(F)F)cc3)CC2)cc1 [Q203 free base, 6-chloro-2-ethyl-N-(4-(4-(4-(trifluoromethoxy)phenyl)piperidine-1-yl)benzyl)imidazo[1,2-a]pyridine-3-carboxamide]",Tcryst,[1]; IPA,37.0-39.3 °C
same,Tdisso,[1]; IPA,52.5-55.7 °C
same,solubility,[1]; IPA,< 25.3 mg/mL
same,Tcryst,[1]; MEK,not observed
same,Tdisso,[1]; MEK,ambient
same,solubility,[1]; MEK,50 to 56 mg/mL
same,Tcryst,[1]; acetone,*not observed
same,solubility,[1]; acetone,< 25.4 mg/mL
same,Tdisso,"[1]; acetone, partial solubility when heated, solid remained after two Clarity heat/cool cycles",*35 °C
same,Tcryst,[1]; acetonitrile,47.4-47.9 °C
same,Tdisso,[1]; acetonitrile,58.2-58.9 °C
same,solubility,[1]; acetonitrile,< 25 mg/mL
same,Tcryst,[1]; dichloromethane,not observed
same,Tdisso,[1]; dichloromethane,ambient
same,solubility,[1]; dichloromethane,169 to 253 mg/mL
same,Tcryst,[1]; dimethyl sulfoxide,32.8-39.3 °C
same,Tdisso,[1]; dimethyl sulfoxide,53.6-54.7 °C
same,solubility,[1]; dimethyl sulfoxide,< 25.5 mg/mL
same,Tcryst,[1]; ethyl acetate,not observed
same,Tdisso,[1]; ethyl acetate,ambient
same,solubility,[1]; ethyl acetate,34 to 36 mg/mL
same,Tcryst,[1]; methanol,25.3-26.6 °C
same,Tdisso,[1]; methanol,45.6-47.1 °C
same,solubility,[1]; methanol,< 25 mg/mL
same,Tcryst,[1]; methyl tert-butyl ether,not observed
same,Tdisso,[1]; methyl tert-butyl ether,not observed
same,solubility,[1]; methyl tert-butyl ether,< 25.6 mg/mL
same,Tcryst,[1]; tetrahydrofuran,not observed
same,Tdisso,[1]; tetrahydrofuran,ambient
same,solubility,[1]; tetrahydrofuran,128 to 255 mg/mL
same,activity against tuberculosis,cytochrome bc1,active against tuberculosis
same,solubility at 1 day,"[2]; Acetone+5%water, 50° C.",74 mg/mL
same,solubility at 1 day,"[2]; Acetone+5%water, RT",22 mg/mL
same,solubility at 1 day,"[2]; Acetone+10%water, 50° C.",42 mg/mL
same,solubility at 1 day,"[2]; Acetone, 50° C.",48 mg/mL
same,solubility at 1 day,"[2]; EA and its mixture with water, 50° C.",55 to 98 mg/mL
same,solubility at 1 day,"[2]; EA+4%water, 50° C.",55 mg/mL
same,solubility at 1 day,"[2]; EA+4%water, RT",16 mg/mL
same,solubility at 1 day,"[2]; Ethyl Acetate (EA), 50° C.",99 mg/mL
same,solubility at 1 day,"[2]; Ethyl Acetate (EA), RT",13 mg/mL
same,solubility at 1 day,"[2]; IPA or its mixture with water, 50° C.",11 to 22 mg/mL
same,solubility at 1 day,"[2]; IPA+5%water, 50° C.",22 mg/mL
same,solubility at 1 day,"[2]; IPA+15%water, 50° C.",11 mg/mL
same,solubility at 1 day,"[2]; IPAC+4%water, 50° C.",35 mg/mL
same,solubility at 1 day,"[2]; Isopropyl Acetate (IPAC), 50° C.",51 mg/mL
same,solubility at 1 day,"[2]; Isopropyl Acetate (IPAC), RT",26 mg/mL
same,solubility at 1 day,"[2]; Isopropyl Alcohol (IPA), 50° C.",20 mg/mL
same,solubility at 1 day,"[2]; MA+4%water, 50° C.",105 mg/mL
same,solubility at 1 day,"[2]; MA+4%water, RT",18 mg/mL
same,solubility at 1 day,"[2]; Methyl Amine (MA), 50° C.",94 mg/mL
same,solubility at 1 day,"[2]; Methyl Amine (MA), RT",38 mg/mL
same,solubility at 1 day,"[2]; Tetrahydrofuran (THF), 50° C.",279 mg/mL
same,solubility at 1 day,"[2]; Tetrahydrofuran (THF), RT",133 mg/mL
same,solubility at 1 day,"[2]; acetone and its mixture with water, 50° C.",41 to 74 mg/mL
same,solubility at 1 day,"[2]; methyl acetate, 50° C.",94 to 105 mg/mL
same,pKa,[3],3.7 ± 0.06
